We go through three compounds from patent US9382306B2, “Octapeptide compounds derived from somatostatin and the therapeutic use thereof” (IPSEN PHARMA S.A.S., priority 2008, dated 2016).

Bridge positions count the residues as written; N and C are the ends. Square brackets hold non-standard residues; d marks the D form. Peptide text beside a SMILES is read from it. ξ: configuration not given here. d2Nal = N[C@H](Cc1ccc2ccccc2c1)C(=O)O; Thr(3ξ) = CC(O)[C@H](N)C(=O)O Bounds are passed on as bounds.

Series [1] can be described thus: Dynamic release test in PBS. The format is physicochemical. The settings on record: PBS pH 7.4, 37° C., % of free compound. On the procedure:
(§1) Release studies can be carried out on the octapeptide compounds according to the invention in the form of gel, solid, or in suspension. Two types of tests can be envisaged: static release tests and/or dynamic tests, both are briefly described hereafter.
(§2) The experimental parameters are common to both types of tests. The release medium is a liquid medium which is physico-chemically well-controlled, preferably a PBS (phosphate buffer saline) buffer adjusted to pH 7.4 and maintained at 37° C. The release curve is defined as the concentration of the studied compound in the dissolution medium (expressed in % of free compound) as a function of time (minutes, hours, days). To initiate the tests, a know quantity of sample is placed in the dissolution medium at time 0 (t=0 min/h/d), the sample being optionally conditioned in a device which is suited to its initial physical state (gel, solid, suspension). Measurements of the concentration of the compound in the release medium are carried out by one or more analytical methods which are well known in the state of the art such as UV-visible spectrophotometry or the HPLC (High Performance Liquid Chromatography). The parameters of the analytical methods are adjusted as a function of the physico-chemical characteristics of the compounds. The tests can be carried out with various starting concentrations such as 75 mM and 226 mM in the examples presented hereafter.
For the dynamic release studies, controlled stirring or a release medium flow is applied to the samples. In this mode, the samplings and/or concentration determinations are generally automated and the studies can be carried out in systems / instruments which are standardized and well known in the state of the art (cf. European Pharmacopeia systems). For example, certain studies in dynamic mode can be carried out on samples corresponding to the order of 10 mg of pure compound placed in 100 mL of PBS introduced beforehand into standardized beakers and maintained at 37° C. The stirring and samplings / measurements are controlled by a dissolution testing instrument of device type 1 or 2 described by the European Pharmacopeia.

In series [2] the target is T1, somatostatin receptors sub-type 5 (Homo sapiens, UniProt P35346).
T1 construct: expressed in transfected cells; membrane preparations
Description: Affinity for somatostatin receptors: inhibition of [125I-Tyr11]SRIF-14 binding to membranes of transfected CHO-K1 cells. The conditions noted are these: competitive inhibition of [125I-Tyr11]SRIF-14 binding, 37° C.

For series [3], the target named is T2, somatostatin receptors sub-type 2 (Homo sapiens, UniProt P30874).
T2 construct: expressed in transfected cells; membrane preparations
The description is as above. The conditions noted are these: competitive inhibition of [125I-Tyr11]SRIF-14 binding, 37° C.

A short description of series [4]: Static release test in PBS. The format is physicochemical. The settings on record: 75 mM starting concentration, PBS pH 7.4, 37° C., % of free compound. The procedure: as §1
as §2, with “The tests can be carried out with various starting concentrations such as 75 mM and 226 mM in the examples presented hereafter.” left out

T2 sequence (P30874 whole entry): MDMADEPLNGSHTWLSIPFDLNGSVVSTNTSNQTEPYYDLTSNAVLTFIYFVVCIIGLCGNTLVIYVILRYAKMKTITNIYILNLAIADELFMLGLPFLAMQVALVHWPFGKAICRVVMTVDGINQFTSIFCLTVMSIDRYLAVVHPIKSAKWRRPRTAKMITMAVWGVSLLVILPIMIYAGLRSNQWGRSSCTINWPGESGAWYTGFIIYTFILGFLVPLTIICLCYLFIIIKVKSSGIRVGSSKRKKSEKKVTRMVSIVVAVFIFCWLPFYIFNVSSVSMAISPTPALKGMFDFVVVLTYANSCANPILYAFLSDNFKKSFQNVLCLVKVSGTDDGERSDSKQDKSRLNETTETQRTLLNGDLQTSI
T1 sequence (P35346 whole entry): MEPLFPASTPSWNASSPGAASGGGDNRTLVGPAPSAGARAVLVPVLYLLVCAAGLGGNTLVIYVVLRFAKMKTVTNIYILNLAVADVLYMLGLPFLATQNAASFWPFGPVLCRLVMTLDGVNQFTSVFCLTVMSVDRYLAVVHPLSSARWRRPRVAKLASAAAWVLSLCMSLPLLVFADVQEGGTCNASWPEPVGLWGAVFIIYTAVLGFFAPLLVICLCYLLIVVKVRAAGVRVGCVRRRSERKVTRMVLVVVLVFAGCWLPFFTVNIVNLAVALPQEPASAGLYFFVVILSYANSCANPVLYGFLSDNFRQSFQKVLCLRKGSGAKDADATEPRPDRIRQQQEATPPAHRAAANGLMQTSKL

As usually defined, the Ki is the equilibrium dissociation constant of an inhibitor or competing ligand from its target. Take `CC(C)[C@@H]1NC(=O)[C@H](CCCCN)NC(=O)[C@@H](Cc2c[nH]cn2)NC(=O)[C@H](Cc2ccc(O)cc2)NC(=O)[C@@H](NC(=O)[C@H](N)Cc2ccc3ccccc3c2)CSSC[C@@H](C(=O)N[C@H](C(N)=O)C(C)O)NC1=O` (stereo partly drawn) [Example 3, H-D-2-Nal^1-cyclo(Cys^2-Tyr^3-D-His^4-Lys^5-Val^6-Cys^7)-Thr^8-NH2.2 CH3COOH] (H-[d2Nal]CY[dH]KVC[Thr(3ξ)]-NH2; disulfide 2-7): the “Dynamic release after 44 h” value is given as 100% in series [1] (75 mM starting concentration) and 93% in series [1] (226 mM starting concentration). For the same compound, the inhibition constant (Ki) is no more than 5000 nM in series [2] and no more than 700 nM in series [3].

For `CC(C)[C@@H]1NC(=O)[C@H](CCCCN)NC(=O)[C@@H](C)NC(=O)[C@H](Cc2ccc(O)cc2)NC(=O)[C@@H](NC(=O)[C@H](N)Cc2ccc3ccccc3c2)CSSC[C@@H](C(=O)N[C@H](C(N)=O)C(C)O)NC1=O` (stereo partly drawn) [Example 4, H-D-2-Nal^1-cyclo(Cys^2Tyr^3-D-Ala^4-Lys^5-Val^6Cys^7)-Thr^8-NH2.2 CH3COOH] (H-[d2Nal]CY[dA]KVC[Thr(3ξ)]-NH2; disulfide 2-7), the “Dynamic release after 44 h” value is 94% in series [1] (75 mM starting concentration) and 75% in series [1] (226 mM starting concentration). The same compound came in with an inhibitory constant (Ki) in series [3] of no more than 5000 nM. The “Static release after 48 h” value in series [4] is listed as 85%.

For the compound `CC(C)[C@@H]1NC(=O)[C@H](CCCCN)NC(=O)[C@@H](Cc2cccc3ccccc23)NC(=O)[C@H](Cc2ccc(O)cc2)NC(=O)[C@@H](NC(=O)[C@H](N)Cc2ccc3ccccc3c2)CSSC[C@@H](C(=O)N[C@H](C(N)=O)C(C)O)NC1=O` (stereo partly drawn) [Example 6, H-D-2-Nal^1-cyclo(Cys^2Tyr^3-13-(1-naphthyl)-D-Ala^4-Lys^5-Val^6-Cys^7)-Thr^8-NH2.2 CH3COOH], the “Dynamic release after 44 h” value in series [1] (75 mM starting concentration) was determined as 37%; in series [1] (226 mM starting concentration), 17%. Further, the Ki is no more than 100 nM in series [2] and no more than 5 nM in series [3]. Moreover, the “Static release after 48 h” value in series [4] was 25%.
